Reference: patent US11000033B2, “Ketone or oxime compound, and herbicide” (NISSAN CHEMICAL CORPORATION, priority 2014, dated 2021)

Legend:
Assay type in all cases: in vivo
Avena fatua = assay: Test Example 5: herbicidal effect by foliage application, plastic box (symbol I); conditions: 320 g/ha, 3 weeks after application
Method in brief: (§1)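 Post-emergence spray; diluvial soil (sterilized), ~1.5 cm seed cover; greenhouse 25–30° C; 14-day-old plants; water-diluted emulsion at predetermined dose; visual score at 3 wk post-treatment.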

[1] = tested on: Echinochloa crus-galli var. crus-galli; assay: Test Example 3: herbicidal effect by foliage application, Wagner pot (symbol H); conditions: application herbicide amount 320 g/ha
Method in brief: (§2)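 Foliar spray of a water-diluted emulsion at a predetermined herbicide amount, applied to 14-day-old plants. Seedlings were raised in flooded alluvial soil (0.1–0.5 cm water) at 25–30 °C in a greenhouse. Injury was rated after 3 weeks against fixed criteria.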

Apera spica-venti [2] = assay: Test Example 4: herbicidal effect by soil treatment (symbol L); conditions: application herbicide amount 320 g/ha
Method in brief: (§3)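 Seeds were sown in sterilized diluvial soil, covered with about 1.5 cm of soil, and the soil surface was sprayed with a water-diluted emulsion of the compound at a predetermined rate. Plants grew in a greenhouse at 25° C. to 30° C.; effects were scored visually 3 weeks after application.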

Chenopodium album = assay: Test Example 4: herbicidal effect by soil treatment (symbol O); conditions: application herbicide amount 320 g/ha
Method in brief: as §3

Amaranthus retroflexus = assay: Test Example 4: herbicidal effect by soil treatment (symbol N); conditions: application herbicide amount 320 g/ha
Method in brief: as §3

transplanted rice plant = assay: Test Example 1: effect on crop, application before weed generation in submerged conditions (symbol a); conditions: application herbicide amount 320 g/ha
Method in brief: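 Rice at 2.5 leaf stage transplanted into submerged soil (4 cm depth) sown with three weed species; herbicide applied before weed emergence.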

[3] = tested on: Echinochloa crus-galli var. crus-galli; assay: Test Example 5: herbicidal effect by foliage application, plastic box (symbol H); conditions: 320 g/ha, 3 weeks after application
Method in brief: as §1

Lolium multiflorum Lam. = assay: Test Example 4: herbicidal effect by soil treatment (symbol K); conditions: application herbicide amount 320 g/ha
Method in brief: as §3

Setaria viridis [4] = assay: Test Example 5: herbicidal effect by foliage application, plastic box (symbol G); conditions: 320 g/ha, 3 weeks after application
Method in brief: as §1

rapeseed = assay: Test Example 5: effect on crop by foliage application, plastic box (symbol g); conditions: 320 g/ha, 3 weeks after application
Method in brief: (§4)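 Greenhouse test at 25° C. to 30° C. Seeds of crops and weeds were spot-sown in boxes of sterilized diluvial soil under roughly 1.5 cm soil cover, then grown for foliage treatment.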

Leptochloa chinensis = assay: Test Example 3: herbicidal effect by foliage application, Wagner pot (symbol D); conditions: application herbicide amount 320 g/ha
Method in brief: as §2

[5] = tested on: directly sowed rice plant; assay: Test Example 3: effect on crop by foliage application, Wagner pot (symbol b); conditions: application herbicide amount 320 g/ha
Method in brief: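 Wagner pot (1/10000 are), alluvial soil, submerged 0.1–0.5 cm; sown E. crus-galli var. crus-galli, L. chinensis, C. difformis, rice; greenhouse 25–30 °C.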

Abutilon theophrasti [6] = assay: Test Example 4: herbicidal effect by soil treatment (symbol M); conditions: application herbicide amount 320 g/ha
Method in brief: as §3

Stellaria media [7] = assay: Test Example 4: herbicidal effect by soil treatment (symbol P); conditions: application herbicide amount 320 g/ha
Method in brief: as §3

Veronica persica = assay: Test Example 4: herbicidal effect by soil treatment (symbol R); conditions: application herbicide amount 320 g/ha
Method in brief: as §3

Apera spica-venti [8] = assay: Test Example 5: herbicidal effect by foliage application, plastic box (symbol L); conditions: 320 g/ha, 3 weeks after application
Method in brief: as §1

Abutilon theophrasti [9] = assay: Test Example 5: herbicidal effect by foliage application, plastic box (symbol M); conditions: 320 g/ha, 3 weeks after application
Method in brief: as §1

Galium spurium = assay: Test Example 4: herbicidal effect by soil treatment (symbol Q); conditions: application herbicide amount 320 g/ha
Method in brief: as §3

Setaria viridis [10] = assay: Test Example 4: herbicidal effect by soil treatment (symbol G); conditions: application herbicide amount 320 g/ha
Method in brief: as §3

Digitaria ciliaris = assay: Test Example 4: herbicidal effect by soil treatment (symbol F); conditions: application herbicide amount 320 g/ha
Method in brief: as §3

beet = assay: Test Example 5: effect on crop by foliage application, plastic box (symbol f); conditions: 320 g/ha, 3 weeks after application
Method in brief: as §4

rice plant = assay: Test Example 5: effect on crop by foliage application, plastic box (symbol b); conditions: 320 g/ha, 3 weeks after application
Method in brief: as §4

Stellaria media [11] = assay: Test Example 5: herbicidal effect by foliage application, plastic box (symbol P); conditions: 320 g/ha, 3 weeks after application
Method in brief: as §1

Row | SMILES | I: Avena fatua, herbicidal effect (criteria of Test Example 1) (Avena fatua) | herbicidal effect on H (Echinochloa crus-galli var. crus-galli), grade 0-5 [1] | L: Apera spica-venti, herbicidal effect grade (Apera spica-venti [2]) | O: Chenopodium album, herbicidal effect grade (Chenopodium album) | N: Amaranthus retroflexus, herbicidal effect grade (Amaranthus retroflexus) | Effect grade on crop, a: transplanted rice plant (transplanted rice plant) | H: Echinochloa crus-galli var. crus-galli, herbicidal effect (criteria of Test Example 1) [3] | K: Lolium multiflorum Lam., herbicidal effect grade (Lolium multiflorum Lam.) | G: Setaria viridis, herbicidal effect (criteria of Test Example 1) (Setaria viridis [4]) | g: rapeseed, effect on crop (criteria of Test Example 1) (rapeseed) | herbicidal effect on D (Leptochloa chinensis), grade 0-5 (Leptochloa chinensis) | effect on crop b (directly sowed rice plant), grade 0-5 [5] | M: Abutilon theophrasti, herbicidal effect grade (Abutilon theophrasti [6]) | P: Stellaria media, herbicidal effect grade (Stellaria media [7]) | R: Veronica persica, herbicidal effect grade (Veronica persica) | L: Apera spica-venti, herbicidal effect (criteria of Test Example 1) (Apera spica-venti [8]) | M: Abutilon theophrasti, herbicidal effect (criteria of Test Example 1) (Abutilon theophrasti [9]) | Q: Galium spurium, herbicidal effect grade (Galium spurium) | G: Setaria viridis, herbicidal effect grade (Setaria viridis [10]) | F: Digitaria ciliaris, herbicidal effect grade (Digitaria ciliaris) | also measured
1 | CON=C(C)CC1CC(OC(=O)N2CCOCC2)=C(c2c(C)cc(-c3ccc(F)cc3)cc2C)C1=O (mixture of isomers) [6-059] | 5 (Herbicidal ratio of 90% or more (almost completely withered)) | 5 (Herbicidal ratio of 90% or more (almost completely withered)) | 5 (Herbicidal ratio of 90% or more (almost completely withered)) | 0 (Herbicidal ratio of 5% or lower (almost no effect)) | 0 (Herbicidal ratio of 5% or lower (almost no effect)) | 5 (Herbicidal ratio of 90% or more (almost completely withered)) | 5 (Herbicidal ratio of 90% or more (almost completely withered)) | 1 (Herbicidal ratio of 5% or higher and lower than 20%) | 5 (Herbicidal ratio of 90% or more (almost completely withered)) | 5 (Herbicidal ratio of 90% or more (almost completely withered)) | 5 (Herbicidal ratio of 90% or more (almost completely withered)) | 5 (Herbicidal ratio of 90% or more (almost completely withered)) | 0 (Herbicidal ratio of 5% or lower (almost no effect)) | 0 (Herbicidal ratio of 5% or lower (almost no effect)) | 3 (Herbicidal ratio of 40% or higher and lower than 70%) | 5 (Herbicidal ratio of 90% or more (almost completely withered)) | 5 (Herbicidal ratio of 90% or more (almost completely withered)) | 3 (Herbicidal ratio of 40% or higher and lower than 70%) | 5 (Herbicidal ratio of 90% or more (almost completely withered)) | 5 (Herbicidal ratio of 90% or more (almost completely withered)) | f: beet, effect on crop (criteria of Test Example 1) (beet): 0 (Herbicidal ratio of 5% or lower (almost no effect)); b: directly sowed rice plant, effect on crop (criteria of Test Example 1) (rice plant): 5 (Herbicidal ratio of 90% or more (almost completely withered)); P: Stellaria media, herbicidal effect (criteria of Test Example 1) (Stellaria media [11]): 4 (Herbicidal ratio of 70% or higher and lower than 90%)
2 | CON=C(C)CC1CC(OS(=O)(=O)N(C)C)=C(c2c(C)cc(-c3ccc(F)cc3)cc2C)C1=O (mixture of isomers) [6-060] | 5 (Herbicidal ratio of 90% or more (almost completely withered)) | 5 (Herbicidal ratio of 90% or more (almost completely withered)) | 0 (Herbicidal ratio of 5% or lower (almost no effect)) | 0 (Herbicidal ratio of 5% or lower (almost no effect)) | 5 (Herbicidal ratio of 90% or more (almost completely withered)) | 5 (Herbicidal ratio of 90% or more (almost completely withered)) | 5 (Herbicidal ratio of 90% or more (almost completely withered)) | 3 (Herbicidal ratio of 40% or higher and lower than 70%) | 4 (Herbicidal ratio of 70% or higher and lower than 90%) | 5 (Herbicidal ratio of 90% or more (almost completely withered)) | 5 (Herbicidal ratio of 90% or more (almost completely withered)) | 5 (Herbicidal ratio of 90% or more (almost completely withered)) | 0 (Herbicidal ratio of 5% or lower (almost no effect)) | 0 (Herbicidal ratio of 5% or lower (almost no effect)) | 2 (Herbicidal ratio of 20% or higher and lower than 40%) | 5 (Herbicidal ratio of 90% or more (almost completely withered)) | 5 (Herbicidal ratio of 90% or more (almost completely withered)) | 0 (Herbicidal ratio of 5% or lower (almost no effect)) | 5 (Herbicidal ratio of 90% or more (almost completely withered)) | 5 (Herbicidal ratio of 90% or more (almost completely withered)) | f: beet, effect on crop (criteria of Test Example 1) (beet): 2 (Herbicidal ratio of 20% or higher and lower than 40%); b: directly sowed rice plant, effect on crop (criteria of Test Example 1) (rice plant): 5 (Herbicidal ratio of 90% or more (almost completely withered)); P: Stellaria media, herbicidal effect (criteria of Test Example 1) (Stellaria media [11]): 4 (Herbicidal ratio of 70% or higher and lower than 90%)
3 | CON=C(C)CC1CC(OC(=O)N(C)C)=C(c2c(C)cc(-c3ccc(Cl)cc3)cc2C)C1=O (mixture of isomers) [6-063] | 5 (Herbicidal ratio of 90% or more (almost completely withered)) | 4 (Herbicidal ratio of 70% or higher and lower than 90%) | 5 (Herbicidal ratio of 90% or more (almost completely withered)) | 0 (Herbicidal ratio of 5% or lower (almost no effect)) | 0 (Herbicidal ratio of 5% or lower (almost no effect)) | 4 (Herbicidal ratio of 70% or higher and lower than 90%) | 5 (Herbicidal ratio of 90% or more (almost completely withered)) | 0 (Herbicidal ratio of 5% or lower (almost no effect)) | 5 (Herbicidal ratio of 90% or more (almost completely withered)) | 4 (Herbicidal ratio of 70% or higher and lower than 90%) | 5 (Herbicidal ratio of 90% or more (almost completely withered)) | 5 (Herbicidal ratio of 90% or more (almost completely withered)) | 0 (Herbicidal ratio of 5% or lower (almost no effect)) | 0 (Herbicidal ratio of 5% or lower (almost no effect)) | 0 (Herbicidal ratio of 5% or lower (almost no effect)) | 5 (Herbicidal ratio of 90% or more (almost completely withered)) | 2 (Herbicidal ratio of 20% or higher and lower than 40%) | 0 (Herbicidal ratio of 5% or lower (almost no effect)) | 1 (Herbicidal ratio of 5% or higher and lower than 20%) | 5 (Herbicidal ratio of 90% or more (almost completely withered)) | f: beet, effect on crop (criteria of Test Example 1) (beet): 0 (Herbicidal ratio of 5% or lower (almost no effect)); b: directly sowed rice plant, effect on crop (criteria of Test Example 1) (rice plant): 3 (Herbicidal ratio of 40% or higher and lower than 70%); P: Stellaria media, herbicidal effect (criteria of Test Example 1) (Stellaria media [11]): 0 (Herbicidal ratio of 5% or lower (almost no effect))
